Source: PubChem BioAssay AID2060626 (Molecular Pharmacology Branch, DTP, NCI, 2025)
Values joined by “and” are separate entries in the source; they are usually repeats but may differ in a detail not shown here. Identical values can stand only once. Blank lines part the entries; values can stand above or below the compound they belong to.

Test system: 168753-222-R-J1-PDC complex spheroid viability
Test: Anticancer human tumor 168753-222-R-J1-PDC patient-derived bladder carcinoma cell line growth inhibition [CLK]
Conditions: for viability, T/C: stronger effect = lower value
Method in brief: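 Multi-cell-type spheroids combined patient-derived tumor cells with HUVEC endothelial cells and human mesenchymal stem cells. Paired agents were dosed in half-log steps down from about clinical Cmax, or from 10 microM where Cmax was unknown.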

[1] = curve of first compound, second compound 0.0316 µM
[2] = curve of first compound, second compound 0.1 µM
[3] = curve of first compound, second compound 0.316 µM
[4] = curve of first compound, second compound 1 µM
[5] = curve of first compound, second compound 3.16 µM
[6] = curve of first compound, second compound 10 µM
[7] = second compound 0.0316 µM, first compound 0.0316 µM
[8] = second compound 0.0316 µM, first compound 0.1 µM
[9] = second compound 0.0316 µM, first compound 0.316 µM
[10] = second compound 0.0316 µM, first compound 1 µM
[11] = second compound 0.0316 µM, first compound 3.16 µM
[12] = second compound 0.0316 µM, first compound 10 µM
[13] = second compound 0.1 µM, first compound 0.0316 µM
[14] = second compound 0.1 µM, first compound 0.1 µM
[15] = second compound 0.1 µM, first compound 0.316 µM
[16] = second compound 0.1 µM, first compound 1 µM
[17] = second compound 0.1 µM, first compound 3.16 µM
[18] = second compound 0.1 µM, first compound 10 µM
[19] = second compound 0.316 µM, first compound 0.0316 µM
[20] = second compound 0.316 µM, first compound 0.1 µM
[21] = second compound 0.316 µM, first compound 0.316 µM
[22] = second compound 0.316 µM, first compound 1 µM
[23] = second compound 0.316 µM, first compound 3.16 µM
[24] = second compound 0.316 µM, first compound 10 µM
[25] = second compound 1 µM, first compound 0.0316 µM
[26] = second compound 1 µM, first compound 0.1 µM
[27] = second compound 1 µM, first compound 0.316 µM
[28] = second compound 1 µM, first compound 1 µM
[29] = second compound 1 µM, first compound 3.16 µM
[30] = second compound 1 µM, first compound 10 µM
[31] = second compound 3.16 µM, first compound 0.0316 µM
[32] = second compound 3.16 µM, first compound 0.1 µM
[33] = second compound 3.16 µM, first compound 0.316 µM
[34] = second compound 3.16 µM, first compound 1 µM
[35] = second compound 3.16 µM, first compound 3.16 µM
[36] = second compound 3.16 µM, first compound 10 µM
[37] = second compound 10 µM, first compound 0.0316 µM
[38] = second compound 10 µM, first compound 0.1 µM
[39] = second compound 10 µM, first compound 0.316 µM
[40] = second compound 10 µM, first compound 1 µM
[41] = second compound 10 µM, first compound 3.16 µM
[42] = second compound 10 µM, first compound 10 µM
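Note: viability measured after seven days of drug exposure.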
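Throughout, for viability, T/C: luminescence signal used as surrogate for viable cell amount; 100% = DMSO vehicle control wells.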

Structure (SMILES): CC(C)CC(NC(=O)C(Cc1ccccc1)NC(=O)c1cnccn1)B(O)O (centres undefined) + CN1CCN(c2cc(C(=O)Nc3cc4cc(-c5cnn(C)c5)ccc4cn3)ccn2)CC1
IC50 [1]: 2.02 nM
IC50 [2]: 1.26 nM
IC50 [3]: < 0.949 nM
IC50 [4]: < 0.949 nM
IC50 [5]: < 0.949 nM
IC50 [6]: < 0.949 nM
viability, T/C (second compound 0.0316 µM, first compound 0.000949 µM): 110%
viability, T/C (second compound 0.0316 µM, first compound 0.003 µM): 18.9%
viability, T/C (second compound 0.0316 µM, first compound 0.00949 µM): 0.44%
viability, T/C (second compound 0.0316 µM, first compound 0.03 µM): 0.32%
viability, T/C (second compound 0.0316 µM, first compound 0.0949 µM): 0.25%
viability, T/C (second compound 0.0316 µM, first compound 0.3 µM): 1.03%
viability, T/C (second compound 0.1 µM, first compound 0.000949 µM): 59.4%
viability, T/C (second compound 0.1 µM, first compound 0.003 µM): 20.9%
viability, T/C (second compound 0.1 µM, first compound 0.00949 µM): 0.36%
viability, T/C (second compound 0.1 µM, first compound 0.03 µM): 0.27%
viability, T/C (second compound 0.1 µM, first compound 0.0949 µM): 0.22%
viability, T/C (second compound 0.1 µM, first compound 0.3 µM): 0.23%
viability, T/C (second compound 0.316 µM, first compound 0.000949 µM): 11.4%
viability, T/C (second compound 0.316 µM, first compound 0.003 µM): 11.6%
viability, T/C (second compound 0.316 µM, first compound 0.00949 µM): 0.29%
viability, T/C (second compound 0.316 µM, first compound 0.03 µM): 0.17%
viability, T/C (second compound 0.316 µM, first compound 0.0949 µM): 0.2%
viability, T/C (second compound 0.316 µM, first compound 0.3 µM): 0.16%
viability, T/C (second compound 1 µM, first compound 0.000949 µM): 0.26%
viability, T/C (second compound 1 µM, first compound 0.003 µM): 0.22%
viability, T/C (second compound 1 µM, first compound 0.00949 µM): 0.57%
viability, T/C (second compound 1 µM, first compound 0.03 µM): 0.12%
viability, T/C (second compound 1 µM, first compound 0.0949 µM): 0.15%
viability, T/C (second compound 1 µM, first compound 0.3 µM): 0.15%
viability, T/C (second compound 3.16 µM, first compound 0.000949 µM): 1.04%
viability, T/C (second compound 3.16 µM, first compound 0.003 µM): 0.22%
viability, T/C (second compound 3.16 µM, first compound 0.00949 µM): 0.34%
viability, T/C (second compound 3.16 µM, first compound 0.03 µM): 0.09%
viability, T/C (second compound 3.16 µM, first compound 0.0949 µM): 1.55%
viability, T/C (second compound 3.16 µM, first compound 0.3 µM): 0.25%
viability, T/C (second compound 10 µM, first compound 0.000949 µM): 0.63%
viability, T/C (second compound 10 µM, first compound 0.003 µM): 0.26%
viability, T/C (second compound 10 µM, first compound 0.00949 µM): 0.23%
viability, T/C (second compound 10 µM, first compound 0.03 µM): 0.18%
viability, T/C (second compound 10 µM, first compound 0.0949 µM): 1.16%
viability, T/C (second compound 10 µM, first compound 0.3 µM): 1.04%

Structure (SMILES): CC(CO)NC(=O)c1cc(-c2ccc(Cl)cc2)nn(-c2cnn(C)c2)c1=O (centres undefined) + CN1CCN(c2cc(C(=O)Nc3cc4cc(-c5cnn(C)c5)ccc4cn3)ccn2)CC1
IC50 [1]: > 10000 nM
IC50 [2]: 5220 nM
IC50 [3]: < 31.6 nM
IC50 [4]: < 31.6 nM
IC50 [5]: < 31.6 nM
IC50 [6]: < 31.6 nM
viability, T/C [7]: 98.7%
viability, T/C [8]: 130%
viability, T/C [9]: 64%
viability, T/C [10]: 112%
viability, T/C [11]: 117%
viability, T/C [12]: 88.2%
viability, T/C [13]: 87.2%
viability, T/C [14]: 81.8%
viability, T/C [15]: 64.1%
viability, T/C [16]: 73.3%
viability, T/C [17]: 58.6%
viability, T/C [18]: 39.6%
viability, T/C [19]: 19.4%
viability, T/C [20]: 13.6%
viability, T/C [21]: 16.8%
viability, T/C [22]: 13.8%
viability, T/C [23]: 19.1%
viability, T/C [24]: 13.8%
viability, T/C [25]: 0.44%
viability, T/C [26]: 0.4%
viability, T/C [27]: 0.31%
viability, T/C [28]: 0.55%
viability, T/C [29]: 0.46%
viability, T/C [30]: 3.13%
viability, T/C [31]: 0.2%
viability, T/C [32]: 0.16%
viability, T/C [33]: 2.4%
viability, T/C [34]: 0.15%
viability, T/C [35]: 2.55%
viability, T/C [36]: 0.21%
viability, T/C [37]: 0.26%
viability, T/C [38]: 0.45%
viability, T/C [39]: 0.61%
viability, T/C [40]: 0.27%
viability, T/C [41]: 1.02%
viability, T/C [42]: 2.24%

Structure (SMILES): COc1cccc2c1C(=O)c1c(O)c3c(c(O)c1C2=O)CC(O)(C(=O)CO)CC3OC1CC(N)C(O)C(C)O1 (centres undefined) + CN1CCN(c2cc(C(=O)Nc3cc4cc(-c5cnn(C)c5)ccc4cn3)ccn2)CC1
IC50 [1]: 33.1 nM
IC50 [2]: < 31.6 nM
IC50 [3]: < 31.6 nM
IC50 [4]: < 31.6 nM
IC50 [5]: < 31.6 nM
IC50 [6]: < 31.6 nM
viability, T/C [7]: 51.4%
viability, T/C [8]: 31.8%
viability, T/C [9]: 23.1%
viability, T/C [10]: 6.97%
viability, T/C [11]: 7.48%
viability, T/C [12]: 0.18%
viability, T/C [13]: 38.4%
viability, T/C [14]: 15.5%
viability, T/C [15]: 10.5%
viability, T/C [16]: 7.96%
viability, T/C [17]: 5.89%
viability, T/C [18]: 0.16%
viability, T/C [19]: 8.86%
viability, T/C [20]: 8.74%
viability, T/C [21]: 7.81%
viability, T/C [22]: 6.39%
viability, T/C [23]: 0.05%
viability, T/C [24]: 0.05%
viability, T/C [25]: 0.13%
viability, T/C [26]: 0.11%
viability, T/C [27]: 0.17%
viability, T/C [28]: 0.05%
viability, T/C [29]: 0.48%
viability, T/C [30]: 1.29%
viability, T/C [31]: 1.25%
viability, T/C [32]: 0.09%
viability, T/C [33]: 0.07%
viability, T/C [34]: 0.05%
viability, T/C [35]: 0.27%
viability, T/C [36]: 0.95%
viability, T/C [37]: 0.04%
viability, T/C [38]: 0.26%
viability, T/C [39]: 0.34%
viability, T/C [40]: 0.08%
viability, T/C [41]: 0.95%
viability, T/C [42]: 0.95%

Continued, in another order:

IC50 (curve of compound): > 10000 nM
Structure (SMILES): C#Cc1c(F)ccc2cc(O)cc(-c3ncc4c(N5CC6CCC(C5)N6)nc(OCC56CCCN5CC(F)C6)nc4c3F)c12 (centres undefined)
viability, T/C (compound 0.0316 µM): 107% and 94.2%
viability, T/C (compound 0.1 µM): 103% and 96.3%
viability, T/C (compound 0.316 µM): 99.5% and 107%
viability, T/C (compound 1 µM): 103% and 97.3%
viability, T/C (compound 3.16 µM): 89.2% and 66.9%
viability, T/C (compound 10 µM): 80.6% and 52.9%

IC50 (curve of compound): 763 nM and 4400 nM
Structure (SMILES): Nc1ccccc1NC(=O)c1ccc(CNC(=O)OCc2cccnc2)cc1
viability, T/C (compound 0.0316 µM): 62.3% and 96.6%
viability, T/C (compound 0.1 µM): 73.6% and 91.6%
viability, T/C (compound 0.316 µM): 60.1% and 85.8%
viability, T/C (compound 1 µM): 37.7% and 86.4%
viability, T/C (compound 3.16 µM): 38.6% and 60.3%
viability, T/C (compound 10 µM): 11.8% and 22.8%

IC50 [1]: > 10000 nM
IC50 [2]: 7020 nM
IC50 [3]: 8050 nM
IC50 [4]: 41.2 nM
IC50 [5]: < 31.6 nM
IC50 [6]: < 31.6 nM
Structure (SMILES): C=C(F)C(=O)N1CCN(c2nc(OCC3CCCN3C)nc3c2CCN(c2cccc4cccc(Cl)c24)C3)CC1CC#N (centres undefined) + CNC(=O)c1ccc(Nc2nc(OC3CCCC3)c3c(-c4ccc5nc(C)oc5c4)c[nH]c3n2)c(OC)c1
viability, T/C [7]: 104%
viability, T/C [8]: 120%
viability, T/C [9]: 102%
viability, T/C [10]: 102%
viability, T/C [11]: 110%
viability, T/C [12]: 52.8%
viability, T/C [13]: 94.1%
viability, T/C [14]: 103%
viability, T/C [15]: 83.9%
viability, T/C [16]: 96.2%
viability, T/C [17]: 96.5%
viability, T/C [18]: 30%
viability, T/C [19]: 79.5%
viability, T/C [20]: 75.8%
viability, T/C [21]: 81.9%
viability, T/C [22]: 74.3%
viability, T/C [23]: 90%
viability, T/C [24]: 43.1%
viability, T/C [25]: 50.1%
viability, T/C [26]: 50.6%
viability, T/C [27]: 45.5%
viability, T/C [28]: 28.8%
viability, T/C [29]: 46.8%
viability, T/C [30]: 31.7%
viability, T/C [31]: 23.4%
viability, T/C [32]: 26.8%
viability, T/C [33]: 26.3%
viability, T/C [34]: 17.8%
viability, T/C [35]: 18.4%
viability, T/C [36]: 18.1%
viability, T/C [37]: 22.6%
viability, T/C [38]: 21.2%
viability, T/C [39]: 24.7%
viability, T/C [40]: 19.3%
viability, T/C [41]: 17.5%
viability, T/C [42]: 14.6%

IC50 (curve of compound): 3110 nM and > 10000 nM
Structure (SMILES): CC1COCCN1c1cc(C2(S(C)(=N)=O)CC2)nc(-c2ccnc3[nH]ccc23)n1 (centres undefined)
viability, T/C (compound 0.0316 µM): 93.5% and 106%
viability, T/C (compound 0.1 µM): 67% and 101%
viability, T/C (compound 0.316 µM): 84.1% and 104%
viability, T/C (compound 1 µM): 75.9% and 102%
viability, T/C (compound 3.16 µM): 49.7% and 87.8%
viability, T/C (compound 10 µM): 26.7% and 56.4%
